Results: ChEMBL document CHEMBL2176876, “Discovery of potent and selective pyrazolopyrimidine janus kinase 2 inhibitors” (J Med Chem, 2012)

Legend:
[1] = Permeability from apical to basolateral side in MDCK cells; type: ADME, cell-based, Canis lupus familiaris; conditions: dog, read-out: permeability
[2] = Volume of distribution at steady state in Sprague-Dawley rat at 0.1 to 1 mg/kg, iv; type: ADME, organism-based; set-up: dose 0.1-1 mg/kg, route intravenous; conditions: in vivo, read-out: Vdss
[3] = Oral bioavailability in Sprague-Dawley rat at 5 mg/kg; type: ADME, organism-based; conditions: in vivo
[4] = Volume of distribution at steady state in Balb/C mouse at 0.5 mg/kg, iv; type: ADME, organism-based; set-up: dose 0.5 mg/kg, route intravenous; conditions: in vivo, read-out: Vdss
[5] = Oral bioavailability in Balb/C mouse at 5 mg/kg; type: ADME, organism-based; conditions: in vivo

SMILES | Papp A→B [1] [×10⁻⁶ cm/s] | Vd [2] [L/kg] | bioavailability [3] [%] | Vd [4] [L/kg] | bioavailability [5] [%]
CNc1ccn2ncc(C(=O)Nc3cc(C)nn3-c3cccc(Cl)c3)c2n1 | 15.1 | 0.843 | 30 |  | 
Cn1cc(NC(=O)c2cnn3cccnc23)c(-c2cccc(Cl)c2)n1 |  | 0.349 | 124 |  | 
Cn1cc(NC(=O)c2cnn3ccc(N)nc23)c(-c2cccc(Cl)c2)n1 |  | 0.355 | 7 |  | 
Cn1cc(NC(=O)c2cnn3ccc(N)nc23)c(-c2cc(Cl)ccc2Cl)n1 | 10.5 | 1.08 | 63 |  | 
Cc1cc(NC(=O)c2cnn3cccnc23)n(-c2cccc(Cl)c2)n1 | 10.5 | 0.293 | 44 |  | 
Cc1cc(NC(=O)c2cnn3ccc(N)nc23)n(-c2cccc(Cl)c2)n1 | 8.4 | 0.185 | 1 | 0.27 | 8.6
